Experimental data published in patent EP0726261A1, “Herbidical 1,2,4 thiadiazoles” (American Cyanamid Company, priority 1995, dated 1996).

What was measured:
Assay type in all cases: in vivo
Alopecurus myosuroides [1] = experiment: Preemergence herbicidal activity (Example 67); settings: pre, 800 g/ha
Protocol: (§1) Herbicidal evaluation of compounds of the invention is conducted on the following plant species:
(§2) The soil is a prepared horticultural substrate containing 30% peat, 20% volcanic clay, 30% bark residues and 20% polyamide/styromull in a 1:3 mixture with loamy sand. Test solutions are prepared by dissolving the test compound in acetone containing 0.5% of an alkylphenol/ethylene oxide condensate under the trademark, TRITON® X-155, and diluting with water as needed. The test solutions are applied as a spray to the 3-6 week old seedling plants at dose rates corresponding to 800g/ha in a volume equivalent to 400 L/ha. A pneumatic spraying device employing a Teejet nozzle SS 8002E operating at 3 bar is used for a predetermined time. After spraying, the treated plants are placed on greenhouse benches and cared for in a manner commensurate with conventional greenhouse practice. After 10-21 days, the treated plants are evaluated and rated according to the rating system provided below.
(§3) The soil surface is then sprayed with test solutions as described in the postemergence evaluation hereinabove. After spraying, the treated cups are placed on greenhouse benches and cared for in the manner commensurate with conventional greenhouse practice. About 1-3 weeks after treatment the cups are evaluated and rated according to the rating system provided hereinabove.

Helianthus annuus [2] = experiment: Preemergence herbicidal activity (Example 67); settings: pre, 800 g/ha
Protocol: as §1, §2, §3

Chenopodium album [3] = experiment: Preemergence herbicidal activity (Example 67); settings: pre, 800 g/ha
Protocol: as §1, §2, §3

Veronica persica [4] = experiment: Preemergence herbicidal activity (Example 67); settings: pre, 800 g/ha
Protocol: as §1, §2, §3

Zea mays [5] = experiment: Preemergence herbicidal activity (Example 67); settings: pre, 800 g/ha
Protocol: as §1, §2, §3

Ipomoea hederacea [6] = experiment: Preemergence herbicidal activity (Example 67); settings: pre, 800 g/ha
Protocol: as §1, §2, §3

Galium aparine [7] = experiment: Preemergence herbicidal activity (Example 67); settings: pre, 800 g/ha
Protocol: as §1, §2, §3

Amaranthus retroflexus [8] = experiment: Preemergence herbicidal activity (Example 67); settings: pre, 800 g/ha
Protocol: as §1, §2, §3

Abutilon theophrasti [9] = experiment: Preemergence herbicidal activity (Example 67); settings: pre, 800 g/ha
Protocol: as §1, §2, §3

Setaria viridis [10] = experiment: Preemergence herbicidal activity (Example 67); settings: pre, 800 g/ha
Protocol: as §1, §2, §3

Helianthus annuus [11] = experiment: Postemergence herbicidal activity (Example 67); settings: pos, 800 g/ha
Protocol: as §1, §2

Triticum aestivum [12] = experiment: Postemergence herbicidal activity (Example 67); settings: pos, 800 g/ha
Protocol: as §1, §2

Chenopodium album [13] = experiment: Postemergence herbicidal activity (Example 67); settings: pos, 800 g/ha
Protocol: as §1, §2

Alopecurus myosuroides [14] = experiment: Postemergence herbicidal activity (Example 67); settings: pos, 800 g/ha
Protocol: as §1, §2

Veronica persica [15] = experiment: Postemergence herbicidal activity (Example 67); settings: pos, 800 g/ha
Protocol: as §1, §2

Zea mays [16] = experiment: Postemergence herbicidal activity (Example 67); settings: pos, 800 g/ha
Protocol: as §1, §2

Hordeum vulgare [17] = experiment: Postemergence herbicidal activity (Example 67); settings: pos, 800 g/ha
Protocol: as §1, §2

Setaria viridis [18] = experiment: Postemergence herbicidal activity (Example 67); settings: pos, 800 g/ha
Protocol: as §1, §2

Ipomoea hederacea [19] = experiment: Postemergence herbicidal activity (Example 67); settings: pos, 800 g/ha
Protocol: as §1, §2

Galium aparine [20] = experiment: Postemergence herbicidal activity (Example 67); settings: pos, 800 g/ha
Protocol: as §1, §2

Amaranthus retroflexus [21] = experiment: Postemergence herbicidal activity (Example 67); settings: pos, 800 g/ha
Protocol: as §1, §2

Abutilon theophrasti [22] = experiment: Postemergence herbicidal activity (Example 67); settings: pos, 800 g/ha
Protocol: as §1, §2

Hordeum vulgare [23] = experiment: Preemergence herbicidal activity (Example 67); settings: pre, 800 g/ha
Protocol: as §1, §2, §3

Triticum aestivum [24] = experiment: Preemergence herbicidal activity (Example 67); settings: pre, 800 g/ha
Protocol: as §1, §2, §3

| SMILES | ALO MY rating (Alopecurus myosuroides [1]) | HEL AN rating (Helianthus annuus [2]) | CHE AL rating (Chenopodium album [3]) | VER PE rating (Veronica persica [4]) | ZEA MX rating (Zea mays [5]) | IPO HE rating (Ipomoea hederacea [6]) | GAL AP rating (Galium aparine [7]) | AMA RE rating (Amaranthus retroflexus [8]) | ABU TH rating (Abutilon theophrasti [9]) | SET VI rating (Setaria viridis [10]) | HEL AN rating (Helianthus annuus [11]) | TRZ AW rating (Triticum aestivum [12]) | CHE AL rating (Chenopodium album [13]) | ALO MY rating (Alopecurus myosuroides [14]) | VER PE rating (Veronica persica [15]) | ZEA MX rating (Zea mays [16]) | HOR VW rating (Hordeum vulgare [17]) | SET VI rating (Setaria viridis [18]) | IPO HE rating (Ipomoea hederacea [19]) | GAL AP rating (Galium aparine [20]) | further results |
| --- | --- | --- | --- | --- | --- | --- | --- | --- | --- | --- | --- | --- | --- | --- | --- | --- | --- | --- | --- | --- | --- |
| Cc1ccc(-c2nc(C(=O)NC(C)c3cccs3)ns2)cc1 (racemic) [Example 41] | 0 | 0 | 3 (16-29%) | 3 (16-29%) | 4 (30-44%) | 0 | 0 | 0 | 0 | 0 | 5 (45-64%) | 2 (6-15%) | 5 (45-64%) | 2 (6-15%) | 0 | 2 (6-15%) | 2 (6-15%) | 8 (91-99%) | 3 (16-29%) | 3 (16-29%) | AMA RE rating (Amaranthus retroflexus [21]): 3 (16-29%); ABU TH rating (Abutilon theophrasti [22]): 1 (1-5%); HOR VW rating (Hordeum vulgare [23]): 0; TRZ AW rating (Triticum aestivum [24]): 0 |
| CC(NC(=O)c1nc(-c2cccc(F)c2)ns1)c1cccs1 (racemic) [Example 43] | 0 | 0 | 4 (30-44%) | 2 (6-15%) | 0 | 2 (6-15%) | 2 (6-15%) | 0 | 0 | 0 | 3 (16-29%) | 2 (6-15%) | 4 (30-44%) | 1 (1-5%) | 2 (6-15%) | 0 | 2 (6-15%) | 3 (16-29%) | 2 (6-15%) | 2 (6-15%) | AMA RE rating (Amaranthus retroflexus [21]): 0; ABU TH rating (Abutilon theophrasti [22]): 1 (1-5%); HOR VW rating (Hordeum vulgare [23]): 0; TRZ AW rating (Triticum aestivum [24]): 0 |
| CC(NC(=O)c1nc(-c2cccc(Cl)n2)ns1)c1cccs1 (racemic) [Example 47] | 0 | 0 | 0 | 0 | 0 | 1 (1-5%) | 1 (1-5%) | 0 | 2 (6-15%) | 3 (16-29%) | 5 (45-64%) | 1 (1-5%) | 4 (30-44%) | 4 (30-44%) | 3 (16-29%) | 4 (30-44%) | 3 (16-29%) | 6 (65-79%) | 4 (30-44%) | 4 (30-44%) | AMA RE rating (Amaranthus retroflexus [21]): 1 (1-5%); ABU TH rating (Abutilon theophrasti [22]): 4 (30-44%); HOR VW rating (Hordeum vulgare [23]): 0; TRZ AW rating (Triticum aestivum [24]): 0 |
| COc1ccc(-c2nc(C(=O)NC(C)c3cccs3)ns2)cc1 (racemic) [Example 51, (R/S)-5-(4-Methoxyphenyl)-[1,2,4]thiadiazole-3-carboxylic acid, [1-(2-thienyl)ethyl]amide] | 3 (16-29%) | 1 (1-5%) | 0 | 0 | 0 | 0 | 0 | 5 (45-64%) | 3 (16-29%) | 0 | 8 (91-99%) | 3 (16-29%) | 4 (30-44%) | 5 (45-64%) | 8 (91-99%) | 5 (45-64%) | 5 (45-64%) | 8 (91-99%) | 8 (91-99%) | 6 (65-79%) | AMA RE rating (Amaranthus retroflexus [21]): 4 (30-44%); ABU TH rating (Abutilon theophrasti [22]): 6 (65-79%); HOR VW rating (Hordeum vulgare [23]): 2 (6-15%); TRZ AW rating (Triticum aestivum [24]): 2 (6-15%) |
